Reference: patent US20220267864A1, “THERAPEUTIC, DIAGNOSTIC, AND PROGNOSTIC METHODS FOR CANCER” (Genentech, Inc., priority 2014, published 2022)

Test system: UMUC-10 cell line
Assay: Cell viability (CELLTITER-GLO) of bladder cancer cell line treated with erlotinib
Type: cell-based
Settings: UMUC-10 bladder cancer cell line; 72 hours; 3-fold dilution series starting with a 5 uM dose; FIG. 11G
Description: Bladder cancer cell lines were obtained from the American Type Culture Collection (ATCC, Manassas, Va.) or from the Deutsche Sammlung von Mikroorganismen and Zellkulturen GmbH (DSMZ, Braunschweig, Germany). Cell lines were archived at an early passage in the Genentech cell bank and authenticated either by a multiplex short tandem repeat assay or as previously described (O'Brien et al. Clin. Cancer Res. 16(14): 3670-3683, 2010). All cell lines were maintained in RPMI 1640 or DMEM supplemented with 10% fetal bovine serum (Sigma, St. Louis, Mo.), nonessential amino acids, and 2 mmol/L L-glutamine.
Details of its structure, selectivity, and biological properties have been previously described (Stamos et al. J. Biol. Chem. 277(48): 46265-46272, 2002). Cell viability studies were carried out as previously described (O'Brien et al. Clin. Cancer Res. 16(14): 3670-3683, 2010). Cells were plated in quadruplicate at a density of 2,500 cells per well in 384-well plates in normal growth medium and allowed to adhere overnight. […] Cell viability was measured 72 hours later using the […]-GLO® Luminescent Cell Viability Assay (Promega, Madison, Wis.). The percent viability at each concentration was calculated compared to the control treated only with DMSO.

Compound: C#Cc1cccc(Nc2ncnc3cc(OCCOC)c(OCCOC)cc23)c1 [erlotinib, [6,7-bis(2-methoxyethoxy)-4-quinazolin-4-yl]-(3-ethynylphenyl) amine]
- growth inhibition (GI): > 25%
